This is an account of results in PubChem BioAssay AID1033 (Sanford-Burnham Center for Chemical Genomics, 2008).

Structures are written as SMILES. Active and inactive are the calls of the source. The rule behind the calls is not given here.

In this assay the target is Chaperone protein DnaK (Escherichia coli (strain K12)) (UniProt P0A6Y8). Description: E. coli DnaK SBD ligand binding – biophysical, NMR, chaperone (AID 1033). Particulars: Purified DnaK SBD.
Chain of Chaperone protein DnaK (Escherichia coli (strain K12)) (P0A6Y8 whole entry, looked up): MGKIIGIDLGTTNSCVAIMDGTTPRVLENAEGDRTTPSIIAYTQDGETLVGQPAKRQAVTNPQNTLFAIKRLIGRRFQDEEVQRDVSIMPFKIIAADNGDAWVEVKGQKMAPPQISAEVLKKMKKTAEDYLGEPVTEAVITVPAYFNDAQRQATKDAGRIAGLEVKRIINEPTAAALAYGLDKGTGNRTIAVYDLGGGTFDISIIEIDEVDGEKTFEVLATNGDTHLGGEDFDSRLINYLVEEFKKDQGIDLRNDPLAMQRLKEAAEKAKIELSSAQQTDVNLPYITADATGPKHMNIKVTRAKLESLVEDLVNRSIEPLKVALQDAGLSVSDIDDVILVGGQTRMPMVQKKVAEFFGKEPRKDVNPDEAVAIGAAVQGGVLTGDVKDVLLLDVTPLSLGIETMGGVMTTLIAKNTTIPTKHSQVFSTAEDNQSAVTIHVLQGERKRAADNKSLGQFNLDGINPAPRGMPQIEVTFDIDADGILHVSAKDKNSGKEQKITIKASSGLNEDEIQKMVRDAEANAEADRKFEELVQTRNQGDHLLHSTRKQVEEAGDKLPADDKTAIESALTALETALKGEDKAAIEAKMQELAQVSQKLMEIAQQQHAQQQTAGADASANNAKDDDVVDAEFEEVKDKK

Regarding `CC(C)c1ccc2c(c1)CCC1[C@](C)(CN)CCC[C@]21C` (stereo not given in full), the Kd was > 4 mM (inactive).
Take `Cc1c(CO)cnn1-c1ccc(F)cc1`: the Kd was > 4 mM (inactive).
`O=C(O)CCCN1CNC(=S)NC1`: the Kd was > 4 mM (inactive).
`CCOc1ccc(C(=O)c2ccc(O)c(O)c2O)cc1`: the Kd was > 4 mM (inactive).
For the molecule `CC(CCC(=O)O)[C@H]1CCC2C3CC[C@@H]4C[C@H](O)CC[C@]4(C)C3CC[C@@]21C` (stereo not given in full), the Kd is > 4 mM (inactive).
For the molecule `Nc1nnc(COc2cccc(C(F)(F)F)c2)s1`, the Kd is > 4 mM (inactive).
The result for `Cc1nnc(SCC(=O)NC2CCCC2)[nH]c1=O` reads > 4 mM (inactive); that for `COC(=O)c1c(C)c2c(c(C)c1O)OC(=O)c1c(C)c(Cl)c(O)c(Cl)c1O2`, > 4 mM (inactive); that for `CN(C(=O)NC1CCS(=O)(=O)C1)C1CCCCC1` (stereo not given), > 4 mM (inactive).
`O=C(Nc1nncs1)c1c(F)c(F)c(F)c(F)c1F`: the Kd is > 4 mM (inactive).
In the case of `COc1cc2c(cc1OC)C(C)NCC2` (stereo not given) it was > 4 mM (inactive); in that of `COC(=O)[C@]1(C)CC[C@]2(C)CC[C@]3(C)C4=CCc5c(cc(O)c(O)c5C)[C@]4(C)CC[C@@]3(C)C2C1` (stereo not given in full), > 4 mM (inactive); in that of `Cc1nnc(SCc2ccc(F)cc2)s1`, > 4 mM (inactive).
Turning to `N=Cc1c(O)n(-c2cccc(Cl)c2)c(=O)[nH]c1=O`, the Kd was > 4 mM (inactive).
On to `CC(C)c1c(O)ccc2c1CCC1C(C)(C)CCC[C@]21C` (stereo not given in full), for which the Kd is > 4 mM (inactive).
For `O=C(O)c1csc(-c2ccccc2)n1`, the Kd was > 4 mM (inactive).
In the case of `S=C1NC(=S)NC(c2ccc3c(c2)OCO3)N1` it was > 4 mM (inactive); in that of `CC(=O)Nc1cccc(-c2nnc(-c3ccccc3)o2)c1`, > 4 mM (inactive); in that of `COC(=O)CCSCC(=O)Nc1nnc(C)s1`, > 4 mM (inactive).
As for `COC(=O)[C@@H]1OC(=O)[C@H]2O[C@@]23[C@@]1(C)CCC1[C@@]2(C)CCC(=O)C(C)(C)C2C[C@@H](OC(C)=O)[C@]13C` (stereo not given in full), the Kd is > 4 mM (inactive).
For the molecule `Nc1ccc(C(=O)NCC2CCCO2)cc1` (stereo not given), the Kd is > 4 mM (inactive).
Turning to `COc1ccc(C)cc1S(=O)(=O)Nc1ccccc1C`, the Kd is > 4 mM (inactive).
For the molecule `NCc1cn2ccccc2n1`, the Kd is > 4 mM (inactive).
For `COc1cc2c(cc1OC)C1Cc3ccc(OC)c(OC)c3CN1CC2` (stereo not given), the Kd is > 4 mM (inactive).
The result for `CC(=O)c1c(C)nc2ccccc2c1N` reads > 4 mM (inactive).
In the case of `NC(=O)c1cccnc1Oc1ccccc1` it was > 4 mM (inactive); in that of `COc1cc([C@@H]2c3cc4c(cc3C(OC3O[C@@H]5COC(C)O[C@H]5[C@H](O)[C@H]3O)C3COC(=O)[C@@H]32)OCO4)cc(OC)c1O` (stereo not given in full), > 4 mM (inactive).
Consider `NCc1ccc(S(=O)(=O)O)cc1`, for which the Kd was > 4 mM (inactive).
`COc1c2ccoc2cc2oc(C)cc(=O)c12`: the Kd was > 4 mM (inactive).
In the case of `Cc1nn2c3ccccc3nc2n(Cc2ccccc2)c1=O` it was > 4 mM (inactive).
In the case of `O=C1C2C3CCC(O3)C2C(=O)N1c1cccc(F)c1` (stereo not given), the Kd was > 4 mM (inactive).
For `C=C[C@@H](C1=CC(=O)C(OC)=C(OC)C1=O)c1ccccc1`, the Kd is > 4 mM (inactive).
Take `Nc1ncnc2c1ncn2CCN1CCCCC1`: the Kd is > 4 mM (inactive).
As for `Cc1ccc(Nc2nnns2)cc1C`, the Kd is > 4 mM (inactive).
The result for `Cc1cc(C)c(C#N)c(N2CCCC2)n1` reads > 4 mM (inactive).
With `O=C(Nn1cnnc1)c1cccc(C(F)(F)F)c1`, the Kd is > 4 mM (inactive).
For the molecule `OC12CC3CC(CC(C3)C1)C2`, the Kd was > 4 mM (inactive).
As to `COc1cc(/C=C2\SC(=S)NC2=O)ccc1O`, the Kd is > 4 mM (inactive).
On to `COc1ccc(N2CC(=O)NC2=O)cc1`, for which the Kd was > 4 mM (inactive).
On to `CCn1nnc(NC(=O)c2ccccc2Br)n1`, for which the Kd was > 4 mM (inactive).
In the case of `Cc1cc(=O)c2c(O)c(C)c(O)cc2o1`, the Kd was > 4 mM (inactive).
`CCCn1c(C)cc(=O)[nH]c1=O`: the Kd was > 4 mM (inactive).
Take `O=C(O)CNC(=O)c1ccccc1Cl`: the Kd is > 4 mM (inactive).
Consider `C[C@]12C=CC(=O)C=C1CCC1C2CC[C@]2(C)C(=O)CCC12` (stereo not given in full), for which the Kd is > 4 mM (inactive).
With `COC(=O)Nc1nc2c(C)cccc2s1`, the Kd is > 4 mM (inactive).
As for `Cc1cc(C(=O)Nc2ccc3c(c2)OCO3)cs1`, the Kd was > 4 mM (inactive).
For the molecule `CNC(=O)c1c(O)c2ccccc2[nH]c1=O`, the Kd was > 4 mM (inactive).
With `S=c1[nH]nc(-c2cccnc2)n1Cc1ccccc1`, the Kd is > 4 mM (inactive).
Take `CC(=O)Nc1ccc(NC(=O)/C=C\C(=O)O)cc1`: the Kd was > 4 mM (inactive).
In the case of `CCOC(=O)CC1Sc2ccccc2NC1=O` (stereo not given) it was > 4 mM (inactive).
As to `Nc1cccc(C(=O)c2ccccc2)c1`, the Kd was > 4 mM (inactive).
Consider `C[n+]1ccc(C(=O)[O-])cc1`, for which the Kd is > 4 mM (inactive).
Consider `Cc1occc1C(=O)NCc1ccccn1`, for which the Kd is > 4 mM (inactive).
Take `Cc1csc2nc(N)nn12`: the Kd was > 4 mM (inactive).
Regarding `CCOc1ccc2nc(NS(C)(=O)=O)sc2c1`, the Kd was > 4 mM (inactive).
For `O=C(O)c1onc2ccccc12`, the Kd was > 4 mM (inactive).
Consider `O=S1(=O)C=C(Nc2ccccc2)CC1`, for which the Kd is > 4 mM (inactive).
Turning to `CS(=O)(=O)Cc1ccccc1`, the Kd is > 4 mM (inactive).
For the molecule `CC(=O)Nc1cc(C(N)=O)cc(C(N)=O)c1`, the Kd is > 4 mM (inactive).
The result for `Cc1cc(O)c2c(c1O)C(=O)c1c(O)cc(C)c(O)c1C2=O` reads > 4 mM (inactive).
For `CC(C)=NNC(=O)C(=O)NC(C)(C)C`, the Kd is > 4 mM (inactive).
`CC(=O)OC(C)(C)[C@@H]1Cc2cc3ccc(=O)oc3cc2O1`: the Kd is > 4 mM (inactive).
Regarding `CS(=O)(=O)N1CCC(C(=O)NC2CCCC2)CC1`, the Kd was > 4 mM (inactive).
Consider `O=C(O)c1cc(=O)[nH]c2ccccc12`, for which the Kd was > 4 mM (inactive).
As to `COc1ccc(Cl)cc1-c1nc(-c2ccncc2)no1`, the Kd is > 4 mM (inactive).
`CNC(=O)c1ccccc1N`: the Kd was > 4 mM (inactive).
In the case of `CC1(C)NCCN2C(=O)CSC21` (stereo not given) it was > 4 mM (inactive); in that of `COc1ccc([C@H]2Oc3c(I)c(OC)cc(OC)c3C[C@@H]2O)cc1OC`, > 4 mM (inactive); in that of `CC(=O)Oc1ccc2c(c1OC(C)=O)OCC1(O)Cc3c(cc(OC(C)=O)c(OC(C)=O)c3OC(C)=O)C21` (stereo not given), > 4 mM (inactive).
For the molecule `O=C1CSC2=NCCCN12`, the Kd was > 4 mM (inactive).
With `Cc1occc1C(=O)NCc1ccncc1`, the Kd is > 4 mM (inactive).
Take `COc1nc(C#N)c(N2CCOCC2)o1`: the Kd is > 4 mM (inactive).
For the molecule `CN1CCCn2c1nc1c2c(=O)[nH]c(=O)n1C`, the Kd was > 4 mM (inactive).
Consider `NCC(=O)c1ccccc1`, for which the Kd was > 4 mM (inactive).
Turning to `O=C1NC(=O)C2C3C=CC(O3)C12` (stereo not given), the Kd was > 4 mM (inactive).
In the case of `COc1ccc(CN2CCNC(=O)C2CC(=O)O)cc1C` (stereo not given), the Kd was > 4 mM (inactive).
The result for `CC1CCN(C(=S)c2ccccc2O)CC1` reads > 4 mM (inactive); that for `O=C(CC1SC(=O)NC1=O)Nc1ccccc1` (stereo not given), > 4 mM (inactive); that for `CCC(C)C(NC)C(=O)O` (stereo not given), > 4 mM (inactive).
The result for `Cc1sc(N)c(C(N)=O)c1C` reads > 4 mM (inactive); that for `O=C(O)c1ccc(-c2cccs2)s1`, > 4 mM (inactive); that for `O=C(Nc1cccc2ncccc12)c1cccnc1`, > 4 mM (inactive).
In the case of `NC(=O)CCn1c(=O)oc2ccccc21` it was > 4 mM (inactive).
As for `CSc1nc2cc(F)c(F)cc2n1C`, the Kd is > 4 mM (inactive).
Take `CC(=O)OCc1cc(=O)n(C)c(=O)n1C`: the Kd is > 4 mM (inactive).
As to `Cc1onc(-c2ccccc2)c1C(=O)Nc1ccncc1`, the Kd is > 4 mM (inactive).
As to `COC(=O)CSc1nc(N)cc(=O)[nH]1`, the Kd is > 4 mM (inactive).
Regarding `Cn1cnc2c(Cl)ncnc21`, the Kd is > 4 mM (inactive).
In the case of `OC1COCc2nc3ccccc3n2C1` (stereo not given), the Kd is > 4 mM (inactive).
On to `OCCNc1nc2ccc(Cl)cc2[nH]1`, for which the Kd was > 4 mM (inactive).
In the case of `COc1cccc(Oc2ccc(N)cn2)c1` it was > 4 mM (inactive); in that of `O=C(O)CC1C(=O)NCCN1Cc1cccs1` (stereo not given), > 4 mM (inactive).
The result for `Cc1ccccc1NC(=S)NCCO` reads > 4 mM (inactive); that for `OCc1cc(F)cc2c1OCOC2`, > 4 mM (inactive); that for `O=C(O)Cc1csc(-c2ccccc2)n1`, > 4 mM (inactive).
As to `Cc1cccc(OCc2nnc(N)s2)c1`, the Kd is > 4 mM (inactive).
For `N#Cc1sc2nc3c(c(-c4cccnc4)c2c1N)CCC3`, the Kd was > 4 mM (inactive).
`C[C@@H]1CC[C@@]2(OC1)OC1CC3C4CC=C5C[C@@H](O)CC[C@]5(C)C4CC[C@]3(C)C1[C@@H]2C` (stereo not given in full): the Kd is > 4 mM (inactive).
As for `OCc1ccccc1CN1CCOCC1`, the Kd is > 4 mM (inactive).
The result for `CN(C)S(=O)(=O)Nc1ccc(Br)cc1F` reads > 4 mM (inactive); that for `COC(=O)N1CCN(c2ccc(C(C)=O)cc2)CC1`, > 4 mM (inactive).
The result for `O=C(NCc1cccc(Cl)c1)c1ccco1` reads > 4 mM (inactive).
The result for `C[C@]12CCC3C(CC[C@]4(O)C[C@@H](O)CC[C@]34C=O)[C@@]1(O)CCC2C1=CC(=O)OC1` (stereo not given in full) reads > 4 mM (inactive).
For `CC1=CC(=O)C2C(C)(C)CCC[C@]2(C)[C@@]1(O)CCc1ccoc1` (stereo not given in full), the Kd was > 4 mM (inactive).
As for `O=c1ccc2nc3ccccc3c(=O)n2[nH]1`, the Kd was > 4 mM (inactive).

What is called Kd is the free concentration of one partner at which half of the binding sites on the other are occupied at equilibrium, for simple one-to-one binding.
